The values that follow come from patent US10035760B2, “Inhibitors of human immunodeficiency virus replication” (priority 2013, dated 2018).

For this assay, the system named is recombinant NL4-3 virus (Renilla luciferase) in MT-2 cells. Description: HIV cell culture assay (antiviral activity, luciferase readout in infected MT-2 cells). It counts as cell-based. To be noted: Renilla. In outline: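 EC50 derived via median-effect equation from luciferase activity in MT-2 cells after 4–5 day infection, compound serially diluted. Virus: recombinant NL4-3 with Renilla luciferase replacing part of nef, made in 293T cells.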

[1] abbreviates: NL43, read-out: Activity, antiviral activity class, recombinant NL4-3 Renilla luciferase virus in MT-2 cells.
[2] abbreviates: NL43, recombinant NL4-3 Renilla luciferase virus in MT-2 cells.

Like-named read-outs stand apart in the source and are kept apart here.

In the case of `CCN(C(=O)[C@H](Cc1ccccc1)NC(=O)NS(=O)(=O)c1ccccc1C)c1ccc(Cl)c(C(F)(F)F)c1` [Example 182, (S)—N-(4-chloro-3-(trifluoromethyl)phenyl)-N-ethyl-3-phenyl-2-(3-(o-tolylsulfonyl)ureido)propanamide], the EC50 under setting [1] was 100 to 1000 nM.
In the case of `CCCN(C(=O)[C@H](Cc1ccccc1)NC(=O)NS(=O)(=O)c1ccccc1C)c1ccc(Cl)c(Cl)c1` [Example 183, (S)—N-(3,4-dichlorophenyl)-3-phenyl-N-propyl-2-(3-(o-tolylsulfonyl)ureido)propanamide], the EC50 runs as follows: under setting [1], 100 to 1000 nM; under setting [2], 310 nM.
Regarding `CCN(C(=O)[C@H](Cc1ccccc1)NC(=O)NS(=O)(=O)c1ccccc1C)c1ccc(OC)cc1` [Example 184, (S)—N-ethyl-N-(4-methoxyphenyl)-3-phenyl-2-(3-(o-tolylsulfonyl)ureido)propanamide], the EC50 under setting [1] is < 100 nM.
The same measure, in the same setting: in the case of `Cc1ccccc1S(=O)(=O)NC(=O)N[C@@H](Cc1ccccc1)C(=O)N1CCc2cc(S(=O)(=O)N(C)C)ccc21` [Example 185, (S)—N,N-dimethyl-1-(3-phenyl-2-(3-(o-tolylsulfonyl)ureido)propanoyl)indoline-5-sulfonamide] it was 1000 to 10000 nM.
As to `Cc1ccccc1S(=O)(=O)NC(=O)N[C@@H](Cc1ccccc1)C(=O)N1CCc2sccc2C1` [Example 186, (S)—N-((1-(6,7-dihydrothieno[3,2-c]pyridin-5(4H)-yl)-1-oxo-3-phenylpropan-2-yl)carbamoyl)-2-methylbenzenesulfonamide], the EC50 is 1000 to 10000 nM under setting [1] and 3590 nM under setting [2].
For `Cc1ccccc1S(=O)(=O)NC(=O)N[C@@H](Cc1ccccc1)C(=O)N1C[C@@H]2C[C@H]1CO2` [Example 187, N—(((S)-1-((1S,4S)-2-oxa-5-azabicyclo[2.2.1]heptan-5-yl)-1-oxo-3-phenylpropan-2-yl)carbamoyl)-2-methylbenzenesulfonamide], under setting [2], the EC50 was > 33300 nM.
For the molecule `Cc1ccccc1S(=O)(=O)NC(=O)N[C@@H](Cc1ccccc1)C(=O)N1CCC1` [Example 188, (S)—N-((1-(azetidin-1-yl)-1-oxo-3-phenylpropan-2-yl)carbamoyl)-2-methylbenzenesulfonamide], the EC50 under setting [1] was 10000 to 100000 nM and the EC50 under setting [2] amounted to 27500 nM.
As for `Cc1ccccc1S(=O)(=O)NC(=O)N[C@@H](Cc1ccccc1)C(=O)N1CCCC1c1cccnc1` (stereo partly drawn) [Example 189, 2-methyl-N-(((2S)-1-oxo-3-phenyl-1-(2-(pyridin-3-yl)pyrrolidin-1-yl)propan-2-yl)carbamoyl)benzenesulfonamide], the EC50 under setting [1] lay within 1000 to 10000 nM.
With `COc1ccc(N(C)C(=O)[C@H](Cc2ccccn2)NC(=O)NS(=O)(=O)c2ccccc2C)cc1` [Example 192, (S)—N-(4-methoxyphenyl)-N-methyl-3-(pyridin-2-yl)-2-(3-(o-tolylsulfonyl)ureido)propanamide], the EC50 under setting [1] lay in the range of 10000 to 100000 nM.
Regarding `COc1ccc(N(C)C(=O)[C@H](Cn2cncn2)NC(=O)NS(=O)(=O)c2ccccc2C)cc1` [Example 193, (S)—N-(4-methoxyphenyl)-N-methyl-2-(3-(o-tolylsulfonyl)ureido)-3-(1H-1,2,4-triazol-1-yl)propanamide], the EC50 under setting [2] was > 100000 nM.
Turning to `COc1ccc(N(C)C(=O)[C@H](Cc2cccnc2)NC(=O)NS(=O)(=O)c2ccccc2C)cc1` [Example 194, (S)—N-(4-methoxyphenyl)-N-methyl-3-(pyridin-3-yl)-2-(3-(o-tolylsulfonyl)ureido)propanamide], the EC50 under setting [1] fell in the range of 10000 to 100000 nM.
On the same count and under the same terms, with `COc1ccc(N(C)C(=O)[C@H](CC2CCCCC2)NC(=O)NS(=O)(=O)c2ccccc2C)cc1` [Example 195, (S)-3-cyclohexyl-N-(4-methoxyphenyl)-N-methyl-2-(3-(o-tolylsulfonyl)ureido)propanamide] the figure was 1000 to 10000 nM; with `COc1ccc(N(C)C(=O)[C@H](CC2CCCC2)NC(=O)NS(=O)(=O)c2ccccc2C)cc1` [Example 196, (S)-3-cyclopentyl-N-(4-methoxyphenyl)-N-methyl-2-(3-(o-tolylsulfonyl)ureido)propanamide], 10000 to 100000 nM.
In the case of `COc1ccc(N(C)C(=O)[C@@H](NC(=O)NS(=O)(=O)c2ccccc2C)[C@@H](C)c2ccccc2)cc1` [Example 197, (2S,3S)—N-(4-methoxyphenyl)-N-methyl-3-phenyl-2-(3-(o-tolylsulfonyl)ureido)butanamide], the EC50 by setting is: under setting [1], 10000 to 100000 nM; under setting [2], 11500 nM.
For `COc1ccc(N(C)C(=O)[C@H](Cc2cccs2)NC(=O)NS(=O)(=O)c2ccccc2C)cc1` [Example 198, (S)—N-(4-methoxyphenyl)-N-methyl-3-(thiophen-2-yl)-2-(3-(o-tolylsulfonyl)ureido)propanamide] the same measures were 100 to 1000 nM and 270 nM.
In the case of `COc1ccc(N(C)C(=O)[C@H](Cc2ccncc2)NC(=O)NS(=O)(=O)c2ccccc2C)cc1` [Example 199, (S)—N-(4-methoxyphenyl)-N-methyl-3-(pyridin-4-yl)-2-(3-(o-tolylsulfonyl)ureido)propanamide], the EC50 under setting [1] was in the range of 10000 to 100000 nM.
Still for that read-out and setting: in the case of `COc1ccc(N(CC(F)(F)F)C(=O)[C@H](Cc2ccccc2)NC(=O)NS(=O)(=O)c2ccccc2C)cc1` [Example 200, (S)—N-(4-methoxyphenyl)-3-phenyl-2-(3-(o-tolylsulfonyl)ureido)-N-(2,2,2-trifluoroethyl)propanamide] it was 100 to 1000 nM.
Consider `CCN(C(=O)[C@H](Cc1ccccc1)NC(=O)NS(=O)(=O)c1ccccc1Br)c1ccc(OC)cc1` [Example 201, (S)-2-(3-((2-bromophenyl)sulfonyl)ureido)-N-ethyl-N-(4-methoxyphenyl)-3-phenylpropanamide], for which the EC50 under setting [1] was < 100 nM.
Same read-out and setting: in the case of `CCN(C(=O)[C@H](Cc1ccccc1)NC(=O)NS(=O)(=O)c1ccc2c(ccn2CC)c1)c1ccc(OC)cc1` [Example 203, (S)—N-ethyl-2-(3-((1-ethyl-1H-indol-5-yl)sulfonyl)ureido)-N-(4-methoxyphenyl)-3-phenylpropanamide] it was 100 to 1000 nM; in that of `COc1ccc(N(C)C(=O)[C@H](Cc2cc(F)cc(F)c2)NC(=O)NS(=O)(=O)c2ccccc2F)cc1` [Example 204, (S)-3-(3,5-difluorophenyl)-2-(3-((2-fluorophenyl)sulfonyl)ureido)-N-(4-methoxyphenyl)-N-methylpropanamide], 100 to 1000 nM.
In the case of `COc1ccc(N(C)C(=O)[C@H](Cc2cc(F)cc(F)c2)NC(=O)NS(=O)(=O)c2ccccc2C)cc1` [Example 205, (S)-3-(3,5-difluorophenyl)-N-(4-methoxyphenyl)-N-methyl-2-(3-(o-tolylsulfonyl)ureido)propanamide], the EC50 runs as follows: under setting [1], 100 to 1000 nM; under setting [2], 110 nM.
As to `CN(C(=O)[C@H](Cc1ccccc1)NC(=O)NS(=O)(=O)c1ccccc1Cl)c1ccc2c(c1)CCC2` [Example 206, (S)-2-(3-((2-chlorophenyl)sulfonyl)ureido)-N-(2,3-dihydro-1H-inden-5-yl)-N-methyl-3-phenylpropanamide], under setting [1], the EC50 is < 100 nM.
Regarding `Cc1ccccc1S(=O)(=O)NC(=O)N[C@@H](Cc1ccccc1)C(=O)N(C)c1ccc2c(c1)CCC2` [Example 207, (S)—N-(2,3-dihydro-1H-inden-5-yl)-N-methyl-3-phenyl-2-(3-(o-tolylsulfonyl)ureido)propanamide], the EC50 under setting [1] was < 100 nM.
Consider `CN(C(=O)[C@H](Cc1ccccc1)NC(=O)NS(=O)(=O)c1ccccc1)c1ccc2c(c1)CCC2` [Example 208, (S)—N-(2,3-dihydro-1H-inden-5-yl)-N-methyl-3-phenyl-2-(3-(phenylsulfonyl)ureido)propanamide], for which the EC50 under setting [1] was in the range of 100 to 1000 nM.
With `Cc1ccccc1S(=O)(=O)NC(=O)N[C@@H](CCc1ccccc1)C(=O)N(C)c1ccc2c(c1)OCO2` [Example 209, (S)—N-(benzo[d][1,3]dioxol-5-yl)-N-methyl-4-phenyl-2-(3-(o-tolylsulfonyl)ureido)butanamide], the EC50 under setting [1] lay in the range of 10000 to 100000 nM.
Still for that read-out and setting: with `Cc1ccccc1S(=O)(=O)NC(=O)N[C@H](CCc1ccccc1)C(=O)N(C)c1ccc2c(c1)OCO2` [Example 210, (R)—N-(benzo[d][1,3]dioxol-5-yl)-N-methyl-4-phenyl-2-(3-(o-tolylsulfonyl)ureido)butanamide] the figure was 10000 to 100000 nM.
Regarding `C=Cc1cccc(C[C@H](NC(=O)NS(=O)(=O)c2ccccc2C=C)C(=O)N(C)c2ccc(OC)cc2)c1` [Example 212, (S)—N-(4-methoxyphenyl)-N-methyl-3-(3-vinylphenyl)-2-(3-((2-vinylphenyl)sulfonyl)ureido)propanamide], the EC50 runs as follows: under setting [1], < 100 nM; under setting [2], 58 nM.
For `C=CCCOc1cccc(C[C@H](NC(=O)NS(=O)(=O)c2ccccc2C=C)C(=O)N(C)c2ccc(OC)cc2)c1` [Example 213, (S)-3-(3-(but-3-en-1-yloxy)phenyl)-N-(4-methoxyphenyl)-N-methyl-2-(3-((2-vinylphenyl)sulfonyl)ureido)propanamide] the same measures were 1000 to 10000 nM and 5070 nM.
As to `CCN(C(=O)[C@H](Cc1ccccc1)NC(=O)NS(=O)(=O)c1cccc(-c2ccnn2CC(C)C)c1C)c1ccc(OC)cc1` [Example 214, (S)—N-ethyl-2-(3-((3-(1-isobutyl-1H-pyrazol-5-yl)-2-methylphenyl)sulfonyl)ureido)-N-(4-methoxyphenyl)-3-phenylpropanamide], the EC50 under setting [1] is 100 to 1000 nM and the EC50 under setting [2] amounted to 870 nM.
For the molecule `CCc1cccc(C[C@H](NC(=O)NS(=O)(=O)c2ccccc2CC)C(=O)N(C)c2ccc(OC)cc2)c1` [Example 215, (S)-3-(3-ethylphenyl)-2-(3-((2-ethylphenyl)sulfonyl)ureido)-N-(4-methoxyphenyl)-N-methylpropanamide], the EC50 under setting [1] was 100 to 1000 nM.
Consider `C=CCOc1ccc(N(C)C(=O)[C@H](Cc2ccccc2)NC(=O)NS(=O)(=O)c2ccccc2C)cc1` [Example 216, (S)—N-(4-(allyloxy)phenyl)-N-methyl-3-phenyl-2-(3-(o-tolylsulfonyl)ureido)propanamide], for which the EC50 under setting [1] was < 100 nM.
